Values joined by “and” are separate entries in the source; they are usually repeats but may differ in a detail not shown here. Identical values can stand only once.

The record followed here is PubChem BioAssay AID342 (DTP/NCI, 2004).

The assay concerns Swiss mice, Sarcoma 180 sc, mean tumor weight T/C. Put plainly: NCI In Vivo Anticancer Drug Screen. Data for tumor model Sarcoma 180 (subcutaneous) in Swiss mice. Conditions: endpoint: mean tumor weight, higher = larger tumour. The gist of the method:
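Tumor-bearing mice, transplantable tumor; readout survival or tumor size; result = T/C, treated vs vehicle control.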

The mark [1] stands for this setting: dose: 50.0 mg/kg/injection, schedule: Q01DX007 (sc), vehicle: steriod suspending solution.
The mark [2] stands for this setting: dose: 55.0 mg/kg/injection, schedule: Q01DX007 (ip), vehicle: carboxymethylcellulose (CMC).
Where [3] appears, read: dose: 125.0 mg/kg/injection, schedule: Q01DX007 (ip), vehicle: carboxymethylcellulose (CMC).

As to `[N-]=[N+]=CC(=O)CCC(N)C(=O)O` (configuration not stated), the T/C reads like this: (dose: 12.5 mg/kg/injection, schedule: Q#A X014 (ip), vehicle: saline) 45 % of control and 59 % of control; (dose: 25.0 mg/kg/injection, schedule: Q#A X014 (ip), vehicle: saline) 6 % of control and 17 % of control; (dose: 25.0 micrograms/kg/injection, schedule: Q01DX007 (ip), vehicle: carboxymethylcellulose (CMC)) 70 % of control; (dose: 50.0 micrograms/kg/injection, schedule: Q01DX007 (ip), vehicle: carboxymethylcellulose (CMC)) 51 % of control; (dose: 100.0 micrograms/kg/injection, schedule: Q01DX007 (ip), vehicle: carboxymethylcellulose (CMC)) 8 % of control.
Take `Clc1ccc2c(c1)Cc1cc(N=Cc3ccccc3Cl)ccc1-2`: the T/C is 77 % of control (dose: 42.0 mg/kg/injection, schedule: Q01DX007 (ip), vehicle: other); 108 % of control (dose: 64.0 mg/kg/injection, schedule: Q01DX007 (ip), vehicle: other); 57 % of control (dose: 66.0 mg/kg/injection, schedule: Q01DX007 (ip), vehicle: saline); 52 % of control (dose: 99.0 mg/kg/injection, schedule: Q01DX007 (ip), vehicle: saline); 38 % of control (dose: 148.0 mg/kg/injection, schedule: Q01DX007 (ip), vehicle: saline); 42 % of control and 46 % of control (dose: 222.0 mg/kg/injection, schedule: Q01DX007 (ip), vehicle: other). Besides, the T/C reads like this: (dose: 222.0 mg/kg/injection, schedule: Q01DX007 (ip), vehicle: saline) 31 % of control; (dose: 333.0 mg/kg/injection, schedule: Q01DX007 (ip), vehicle: other) 20 % of control and 40 % of control; (dose: 492.0 mg/kg/injection, schedule: Q01DX007 (ip), vehicle: carboxymethylcellulose (CMC)) 40 % of control; (dose: 500.0 mg/kg/injection, schedule: Q01DX007 (ip), vehicle: other) 22 % of control; (dose: 750.0 mg/kg/injection, schedule: Q01DX007 (ip), vehicle: carboxymethylcellulose (CMC)) 31 % of control; (dose: 750.0 mg/kg/injection, schedule: Q01DX007 (ip), vehicle: other) 20 % of control.
On to `C[C@H]1CC[C@@H]2[C@@H](C)[C@H]3[C@H](C[C@H]4[C@@H]5CC=C6C[C@@H](O)CC[C@]6(C)[C@H]5C[C@H](O)[C@]34C)N2C1`, for which the T/C (dose: 10.0 mg/kg/injection, schedule: Q01DX007 (sc), vehicle: steriod suspending solution) was 73 % of control; the T/C under setting [1] was 44 % of control; the T/C (dose: 100.0 mg/kg/injection, schedule: Q01DX007 (sc), vehicle: steriod suspending solution) is 62 % of control.
On to `C[C@]12CCC(=O)C[C@H]1CC[C@@H]1[C@@H]2C(=O)C[C@@]2(C)[C@H]1CC[C@]2(C)O`, for which the T/C is, setting by setting: (dose: 5.0 mg/kg/injection, schedule: Q#A X014 (sc), vehicle: steriod suspending solution) 72 % of control; (dose: 50.0 mg/kg/injection, schedule: Q#A X014 (sc), vehicle: steriod suspending solution) 78 % of control; (dose: 150.0 mg/kg/injection, schedule: Q#A X014 (sc), vehicle: steriod suspending solution) 110 % of control.
Turning to `O=C1c2ccccc2C(=O)c2c1c(O)c1ccccc1c2O`, the T/C was 87 % of control (dose: 100.0 mg/kg/injection, schedule: Q#A X014 (im), vehicle: other); 70 % of control (dose: 100.0 mg/kg/injection, schedule: Q#A X014 (sc), vehicle: other); 109 % of control (dose: 200.0 mg/kg/injection, schedule: Q#A X014 (im), vehicle: other); 66 % of control (dose: 200.0 mg/kg/injection, schedule: Q#A X014 (sc), vehicle: other); 114 % of control (dose: 300.0 mg/kg/injection, schedule: Q#A X014 (im), vehicle: other); 64 % of control (dose: 300.0 mg/kg/injection, schedule: Q#A X014 (sc), vehicle: other). The T/C reads like this: (dose: 400.0 mg/kg/injection, schedule: Q#A X014 (im), vehicle: other) 90 % of control; (dose: 400.0 mg/kg/injection, schedule: Q#A X014 (sc), vehicle: other) 65 % of control; (dose: 500.0 mg/kg/injection, schedule: Q#A X014 (oral), vehicle: other) 72 % of control; (dose: 750.0 mg/kg/injection, schedule: Q#A X014 (oral), vehicle: other) 69 % of control.
As for `CC(=O)OCC(=O)C1(O)C(C)CC2C3C=C(C)C4=Cc5c(cnn5-c5ccccc5)CC4(C)C3C(O)CC21C` (configuration not stated), the T/C is, setting by setting: (dose: 0.16 mg/kg/injection, schedule: Q01DX007 (sc), vehicle: steriod suspending solution) 115 % of control; (dose: 0.25 mg/kg/injection, schedule: Q01DX007 (sc), vehicle: steriod suspending solution) 39 % of control and 42 % of control; (dose: 8.0 mg/kg/injection, schedule: Q01DX007 (sc), vehicle: steriod suspending solution) 15 % of control.
Take `CN1CCCC1c1cccnc1` (configuration not stated): the T/C reads like this: (dose: 0.25 mg/kg/injection, schedule: Q01DX007 (ip), vehicle: carboxymethylcellulose (CMC)) 76 % of control; (dose: 0.5 mg/kg/injection, schedule: Q01DX007 (ip), vehicle: carboxymethylcellulose (CMC)) 105 % of control; (dose: 1.0 mg/kg/injection, schedule: Q01DX007 (ip), vehicle: carboxymethylcellulose (CMC)) 66 % of control.
Turning to `SCc1ccccn1`, the T/C by setting is: (dose: 62.0 mg/kg/injection, schedule: Q01DX007 (ip), vehicle: other) 117 % of control; (dose: 125.0 mg/kg/injection, schedule: Q01DX007 (ip), vehicle: other) 103 % of control.
With `C/C=C1\CN(C)[C@H]2Cc3c([nH]c4ccccc34)[C@@H](c3cc4[nH]c5c(c4cc3OC)CCN3C[C@H]4C[C@H](CC)[C@H]3[C@@]5(C(=O)OC)C4)C[C@H]1C2C(=O)OC` (some centres not stated), the T/C was 58 % of control (dose: 35.0 mg/kg/injection, schedule: Q01DX007 (ip), vehicle: water); 74 % of control and 90 % of control (dose: 50.0 mg/kg/injection, schedule: Q01DX007 (ip), vehicle: water); 38 % of control and 59 % of control (dose: 70.0 mg/kg/injection, schedule: Q01DX007 (ip), vehicle: water); 30 % of control (dose: 90.0 mg/kg/injection, schedule: Q01DX007 (ip), vehicle: water).
With `CC(=O)Nc1cc2c(cc1Cl)C(=O)c1cc(Cl)ccc1-2`, the T/C under setting [2] was 75 % of control; the T/C (dose: 83.0 mg/kg/injection, schedule: Q01DX007 (ip), vehicle: carboxymethylcellulose (CMC)) was 53 % of control; the T/C under setting [3] was 39 % of control; the T/C (dose: 187.5 mg/kg/injection, schedule: Q01DX007 (ip), vehicle: carboxymethylcellulose (CMC)) was 26 % of control.
In the case of `CC(=O)[C@H]1CC[C@H]2[C@@H]3C[C@H](F)C4=CC(=O)CC[C@]4(C)[C@@]3(F)[C@@H](O)C[C@]12C`, the T/C was 65 % of control (dose: 25.0 mg/kg/injection, schedule: Q01DX007 (sc), vehicle: steriod suspending solution); 49 % of control (dose: 37.0 mg/kg/injection, schedule: Q01DX007 (sc), vehicle: steriod suspending solution); 41 % of control (dose: 282.0 mg/kg/injection, schedule: Q01DX007 (sc), vehicle: steriod suspending solution); 36 % of control (dose: 423.0 mg/kg/injection, schedule: Q01DX007 (sc), vehicle: steriod suspending solution).
In the case of `O=C(N/N=C/C=C/c1ccccc1)[C@H](O)[C@@H](O)C(=O)N/N=C/C=C/c1ccccc1`, the T/C (dose: 111.0 mg/kg/injection, schedule: Q#A X014 (ip), vehicle: saline) was 57 % of control; the T/C (dose: 166.5 mg/kg/injection, schedule: Q#A X014 (ip), vehicle: saline) was 40 % of control; the T/C (dose: 250.0 mg/kg/injection, schedule: Q#A X014 (ip), vehicle: saline) is 57 % of control.
With `O=C(Nc1ccc(Sc2ccc(N=Nc3c(O)c(S(=O)(=O)O)cc4cc(S(=O)(=O)O)ccc34)cc2)cc1)c1ccc(N=Nc2ccc3c(S(=O)(=O)O)cccc3c2O)cc1`, the T/C under setting [2] was 68 % of control and 78 % of control; the T/C (dose: 84.0 mg/kg/injection, schedule: Q01DX007 (ip), vehicle: carboxymethylcellulose (CMC)) was 72 % of control and 75 % of control; the T/C under setting [3] was 28 % of control; the T/C (dose: 188.0 mg/kg/injection, schedule: Q01DX007 (ip), vehicle: carboxymethylcellulose (CMC)) is 25 % of control.
For `COc1ccc2c(c1)CC[C@@H]1[C@@H]2CC[C@@]2(C)[C@H]1CC[C@@]2(O)C(F)=C(F)F`, the T/C is 52 % of control (dose: 33.0 mg/kg/injection, schedule: Q01DX007 (sc), vehicle: steriod suspending solution); 46 % of control under setting [1]; 44 % of control (dose: 75.0 mg/kg/injection, schedule: Q01DX007 (sc), vehicle: steriod suspending solution); 45 % of control (dose: 111.0 mg/kg/injection, schedule: Q01DX007 (sc), vehicle: steriod suspending solution); 37 % of control (dose: 167.0 mg/kg/injection, schedule: Q01DX007 (sc), vehicle: steriod suspending solution); 50 % of control (dose: 250.0 mg/kg/injection, schedule: Q01DX007 (sc), vehicle: steriod suspending solution). Moreover, the T/C (dose: 375.0 mg/kg/injection, schedule: Q01DX007 (sc), vehicle: steriod suspending solution) was 55 % of control.

Usually T/C stands for the ratio of treated to control.
